Experimental findings from ChEMBL document CHEMBL1914286, “Design, structure-activity relationship, and highly efficient asymmetric synthesis of 3-phenyl-4-benzylaminopiperidine derivatives as novel neurokinin-1 receptor antagonists” (Bioorg Med Chem, 2011) are described below.

One data set in a line: in vitro. The following applies: human, liver microsomes, Stability. On the technique in general: Liver microsomes are vesicles of endoplasmic reticulum, rich in cytochrome P450 enzymes.
The nature of the next data set: physchem. Conditions: buffer, pH 7.4.
Another data set has as its target Substance-P receptor (Homo sapiens, UniProt P25103). The data set is described as follows: biochemical.
The species named for data set [1] is Cavia porcellus. The data set is described as follows: animal or person. The following applies: Hartley, po, 0.75 h, read-out: INH.
The test system of data set [2] is Cavia porcellus. The data set is described as follows: Antagonist activity at NK1 receptor in po dosed Hartley guinea pig assessed as inhibition of GR73632-induced hypermotility measured after 0.75 hrs. The format is functional. Conditions: for ED50: Cavia porcellus, Hartley, po, 0.75 h, read-out: ID50 (the source's name).
The subject of the next data set is Liver microsomes. Conditions: human, 1 µM.

Sequence of Substance-P receptor (P25103 whole entry): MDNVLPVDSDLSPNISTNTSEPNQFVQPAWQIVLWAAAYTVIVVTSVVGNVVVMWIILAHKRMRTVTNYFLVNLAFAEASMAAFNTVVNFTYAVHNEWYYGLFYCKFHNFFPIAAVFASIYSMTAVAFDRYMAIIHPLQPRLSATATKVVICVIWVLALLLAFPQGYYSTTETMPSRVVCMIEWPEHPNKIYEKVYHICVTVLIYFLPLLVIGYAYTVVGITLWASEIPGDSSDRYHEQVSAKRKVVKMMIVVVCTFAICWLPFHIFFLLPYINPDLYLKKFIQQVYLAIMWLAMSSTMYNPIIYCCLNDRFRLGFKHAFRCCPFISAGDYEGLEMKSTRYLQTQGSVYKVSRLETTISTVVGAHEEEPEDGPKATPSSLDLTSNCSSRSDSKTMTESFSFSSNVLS
Description for Liver microsomes: (§1) Metabolic stability in human liver microsomes at 1 uM
Description for Substance-P receptor: Displacement of [125I]BH-SP from NK1 receptor in human IM9 cells after 30 mins by scintillation counting
Description for in vitro: as §1
Description for physchem: Lipophilicity, log D of the compound at pH 7.4

Broadly, the microsomal CLint is a measure of how fast metabolising enzymes remove a compound, apart from limits set by blood flow. A word on the logD: it is lipophilicity at a set pH, counting ionised and neutral species. For orientation: IC50 means the concentration that gives 50% inhibition. A higher IC50 goes with a need for much substance. On to `COc1ccc(-n2nnnc2C(F)(F)F)cc1CN[C@H]1CCN(C(=O)C2CN(C(C)=O)C2)C[C@H]1c1ccccc1` (racemic), for which, in the data set “in vitro”, the intrinsic metabolic clearance (microsomal CLint) at 1 µM amounted to 27 µL/min/mg. Moreover, the pH-dependent lipophilicity (logD) in “physchem” is 2.31. The 50% inhibitory concentration (IC50) against Substance-P receptor was determined as 0.057 nM. The inhibition in vivo at 1 mg/kg in the data set listed under Cavia porcellus [1] turned out to be 32%.

Regarding `CCNC(=O)N1CC[C@H](NCc2cc(-n3nnnc3C(F)(F)F)ccc2OC)[C@H](c2ccccc2)C1.Cl` (racemic), in the data set on Cavia porcellus [2], the ED50 turned out to be 0.37 mg/kg. Also, in the data set “in vitro”, the microsomal CLint at 1 µM is 159 µL/min/mg. The same molecule registered a logD in “physchem” of 2.79. Also, on Substance-P receptor, the IC50 is 0.039 nM. For the same molecule, the inhibition in vivo at 1 mg/kg in the data set filed under Cavia porcellus [1] was determined as 70%.

With `COc1ccc(-n2nnnc2C(F)(F)F)cc1CN[C@H]1CCN(S(C)(=O)=O)C[C@H]1c1ccccc1` (racemic), the intrinsic metabolic clearance (microsomal CLint) at 1 µM in “in vitro” amounted to 144 µL/min/mg. The same molecule displayed a concentration for half-maximal inhibition (IC50) against Substance-P receptor of 0.075 nM. The inhibition in vivo at 1 mg/kg in the data set listed under Cavia porcellus [1] is 18%.

Regarding `COc1ccc(-n2nnnc2C(F)(F)F)cc1CN[C@H]1CCNC[C@H]1c1ccccc1` (racemic), half-maximal inhibition at Substance-P receptor (IC50) required 1.4 nM.

Turning to `CCNC(=O)N1CC[C@H](NCc2cc(-n3nnnc3C(F)(F)F)ccc2OCC)[C@H](c2ccccc2)C1` (racemic), in “in vitro”, the intrinsic clearance (microsomal CLint) at 1 µM turned out to be 218 µL/min/mg. This molecule came in with an IC50 at Substance-P receptor of 0.086 nM. In addition, the inhibition in vivo at 1 mg/kg in the data set listed under Cavia porcellus [1] was 35%.

Regarding `COc1ccc(-n2nnnc2C(F)(F)F)cc1CN[C@H]1CCN(C(=O)NC(C)C)C[C@H]1c1ccccc1` (racemic), the intrinsic clearance (microsomal CLint) at 1 µM in “in vitro” worked out at 167 µL/min/mg. For the same molecule, the logD in the data set “physchem” is 3.09. The molecule also returned an IC50 against Substance-P receptor of 0.081 nM. Further, the inhibition in vivo at 1 mg/kg in the data set listed under Cavia porcellus [1] worked out at 66%.

`COc1ccc(-n2nnnc2C(F)(F)F)cc1CN[C@H]1CCN(C(=O)CN(C)C(C)=O)C[C@H]1c1ccccc1` (racemic): the microsomal CLint at 1 µM in the data set “in vitro” amounted to 73 µL/min/mg. For the same molecule, in the data set “physchem”, the logD is 2.31. Besides, inhibition against Substance-P receptor was half-maximal at 0.084 nM (IC50). For the same molecule, the inhibition in vivo at 1 mg/kg in the data set filed under Cavia porcellus [1] was 74%.

In turn, `COC(=O)N1CC[C@H](NCc2cc(-n3nnnc3C(F)(F)F)ccc2OC)[C@H](c2ccccc2)C1` (racemic) showed a microsomal CLint at 1 µM in “in vitro” of 199 µL/min/mg. Besides, the midpoint of inhibition against Substance-P receptor, the IC50, lay at 0.054 nM. In the data set filed under Cavia porcellus [1], the inhibition in vivo at 1 mg/kg is 65%.

In turn, `CCN1CC[C@H](NCc2cc(-n3nnnc3C(F)(F)F)ccc2OC)[C@H](c2ccccc2)C1` (racemic) yielded an IC50 on Substance-P receptor of 1.9 nM.

The molecule `CCNC(=O)N1CC[C@H](NCc2cc(OC(F)(F)F)ccc2OC)[C@H](c2ccccc2)C1` (racemic) returned an IC50 against Substance-P receptor of 0.17 nM.

In turn, `COc1ccc(OC(F)(F)F)cc1CN[C@H]1CCN(S(C)(=O)=O)C[C@H]1c1ccccc1` (racemic) displayed an IC50 against Substance-P receptor of 1.2 nM.

As to `COc1ccc(-n2nnnc2C(F)(F)F)cc1CN[C@H]1CCN(C(=O)CCNC(C)=O)C[C@H]1c1ccccc1.Cl` (racemic), the ED50 in the data set with Cavia porcellus [2] was 0.34 mg/kg. The microsomal CLint at 1 µM in the data set “in vitro” is 95 µL/min/mg. Besides, the log distribution coefficient (logD) in “physchem” came to 2.35. At Substance-P receptor, this molecule yielded an IC50 of 0.054 nM. Besides, the inhibition in vivo at 1 mg/kg in the data set listed under Cavia porcellus [1] is 79%.

Molecule `COc1ccc(-n2nnnc2C(F)(F)F)cc1CN[C@H]1CCN(C(=O)NCC(F)(F)F)C[C@H]1c1ccccc1` (racemic) displayed a microsomal CLint at 1 µM in “in vitro” of 155 µL/min/mg. Also, in “physchem”, the logD was determined as 3.03. Further, the IC50 at Substance-P receptor came out at 0.057 nM. Besides, in the data set filed under Cavia porcellus [1], the inhibition in vivo at 1 mg/kg was 65%.

On to `COc1ccc(-n2nnnc2C(F)(F)F)cc1CN[C@H]1CCN(C(=O)CNC(C)=O)C[C@H]1c1ccccc1`, for which the ID50 in the data set with Cavia porcellus [2] amounted to 0.066 mg/kg. This molecule displayed a Stability in the data set on Liver microsomes of 8 µL/min/mg.

With `COc1ccc(-n2nnnc2C(F)(F)F)cc1CN[C@H]1CCN(C(=O)C2CCN(C(C)=O)CC2)C[C@H]1c1ccccc1.Cl` (racemic), the ED50 with Cavia porcellus [2] came to 0.33 mg/kg. Also, in the data set “in vitro”, the microsomal CLint at 1 µM was 76 µL/min/mg. In addition, the logD in “physchem” worked out at 2.51. At Substance-P receptor, the half-inhibitory concentration (IC50) amounted to 0.1 nM. Moreover, in the data set listed under Cavia porcellus [1], the inhibition in vivo at 1 mg/kg came to 85%.

On to `COc1ccc(OC(F)(F)F)cc1CN[C@H]1CCNC[C@H]1c1ccccc1` (racemic), for which half-maximal inhibition on Substance-P receptor (IC50) required 8.4 nM.

As to `COc1ccc(-n2nnnc2C(F)(F)F)cc1CN[C@H]1CCN(C(C)=O)C[C@H]1c1ccccc1.Cl` (racemic), the ED50 with Cavia porcellus [2] came to 0.2 mg/kg. Moreover, the intrinsic metabolic clearance (microsomal CLint) at 1 µM in the data set “in vitro” came out at 111 µL/min/mg. In addition, in “physchem”, the logD turned out to be 2.69. For the same molecule, the half-maximal inhibitory concentration (IC50) on Substance-P receptor worked out at 0.049 nM. In addition, the inhibition in vivo at 1 mg/kg in the data set listed under Cavia porcellus [1] is 82%.

On to `CCN1CC[C@H](NCc2cc(OC(F)(F)F)ccc2OC)[C@H](c2ccccc2)C1` (racemic), for which the IC50 on Substance-P receptor amounted to 4.8 nM. This lies in the single-digit nanomolar range.

Molecule `COc1ccc(-n2nnnc2C(F)(F)F)cc1CN[C@H]1CCN(C(=O)CCCNC(C)=O)C[C@H]1c1ccccc1` (racemic) showed a microsomal CLint at 1 µM in the data set “in vitro” of 146 µL/min/mg. Moreover, the logD in the data set “physchem” was determined as 2.43. The same molecule had an IC50 against Substance-P receptor of 0.025 nM.

With `COc1ccc(-n2nnnc2C(F)(F)F)cc1CN[C@H]1CCN(C(=O)CNC(C)=O)C[C@H]1c1ccccc1` (racemic), the ID50 with Cavia porcellus [2] was 0.26 mg/kg. Moreover, the Stability in the data set on Liver microsomes worked out at 32 µL/min/mg. The same molecule displayed a logD in “physchem” of 2.28. Besides, inhibition against Substance-P receptor was half-maximal at 0.073 nM (IC50). Further, in the data set filed under Cavia porcellus [1], the inhibition in vivo at 1 mg/kg is 99%.

Turning to `COc1ccc(OC(F)(F)F)cc1CN[C@H]1CCN(C(C)=O)C[C@H]1c1ccccc1` (racemic), the 50% inhibitory concentration (IC50) at Substance-P receptor amounted to 0.16 nM. In other words, the sub-nanomolar range.

Consider `CCNC(=O)N1CC[C@@H](NCc2cc(OC(F)(F)F)ccc2OC)[C@H](c2ccccc2)C1` (racemic), for which, on Substance-P receptor, half-maximal inhibition (IC50) required 3.7 nM.

The molecule `COc1ccc(-n2nnnc2C(F)(F)F)cc1CN[C@@H]1CCN(C(=O)CNC(C)=O)C[C@H]1c1ccccc1` (racemic) showed a microsomal CLint at 1 µM in the data set “in vitro” of 34 µL/min/mg. In addition, the half-inhibitory concentration (IC50) against Substance-P receptor was 0.2 nM.

For `CCNC(=O)N1CC[C@H](NCc2cc(-n3nnnc3C(F)(F)F)ccc2OC2CC2)[C@H](c2ccccc2)C1` (racemic), the microsomal CLint at 1 µM in “in vitro” was 217 µL/min/mg. Besides, at Substance-P receptor, the midpoint of inhibition, the IC50, lay at 0.044 nM. In addition, the inhibition in vivo at 1 mg/kg in the data set listed under Cavia porcellus [1] worked out at 94%.

`COc1ccc(-n2nnnc2C(F)(F)F)cc1CN[C@H]1CCN(C(=O)N(C)C)C[C@H]1c1ccccc1` (racemic) displayed a microsomal CLint at 1 µM in the data set “in vitro” of 213 µL/min/mg. In “physchem”, the logD worked out at 3.18. This molecule registered an IC50 on Substance-P receptor of 0.13 nM. In the data set filed under Cavia porcellus [1], the inhibition in vivo at 1 mg/kg was 90%.

`CCNC(=O)N1CC[C@H](NCc2cc(-n3nnnc3C(F)(F)F)cc3c2OCC3)[C@H](c2ccccc2)C1` (racemic) had a microsomal CLint at 1 µM in “in vitro” of 160 µL/min/mg. Also, the half-maximal inhibitory concentration (IC50) against Substance-P receptor stood at 0.093 nM. In addition, the inhibition in vivo at 1 mg/kg in the data set filed under Cavia porcellus [1] is 57%.

Turning to `COC(=O)N1CC[C@H](NCc2cc(OC(F)(F)F)ccc2OC)[C@H](c2ccccc2)C1` (racemic), the half-maximal inhibitory concentration (IC50) on Substance-P receptor is 0.31 nM. In other words, the sub-nanomolar range.

Take `COc1ccc(-n2nnnc2C(F)(F)F)cc1CN[C@@H]1CCN(C(=O)CNC(C)=O)C[C@@H]1c1ccccc1`: on Substance-P receptor, the IC50 was over 100 nM.
